The record followed here is US5476944A, “Derivatives of cyclic phenolic thioethers” (G. D. Searle & Co., priority 1994, dated 1995).

SMILES strings stand for the structures.

Test [1] deals with T1, cellular COX-II (Homo sapiens, UniProt P35354).
T1 construct: stimulated human fetal dermal fibroblasts (HFDF, derived from primary cell cultures); endogenous in cells; host or cells: human fetal dermal fibroblasts (HFDF), primary, stimulated with IL-1 beta
T1 sequence (P35354 18-604): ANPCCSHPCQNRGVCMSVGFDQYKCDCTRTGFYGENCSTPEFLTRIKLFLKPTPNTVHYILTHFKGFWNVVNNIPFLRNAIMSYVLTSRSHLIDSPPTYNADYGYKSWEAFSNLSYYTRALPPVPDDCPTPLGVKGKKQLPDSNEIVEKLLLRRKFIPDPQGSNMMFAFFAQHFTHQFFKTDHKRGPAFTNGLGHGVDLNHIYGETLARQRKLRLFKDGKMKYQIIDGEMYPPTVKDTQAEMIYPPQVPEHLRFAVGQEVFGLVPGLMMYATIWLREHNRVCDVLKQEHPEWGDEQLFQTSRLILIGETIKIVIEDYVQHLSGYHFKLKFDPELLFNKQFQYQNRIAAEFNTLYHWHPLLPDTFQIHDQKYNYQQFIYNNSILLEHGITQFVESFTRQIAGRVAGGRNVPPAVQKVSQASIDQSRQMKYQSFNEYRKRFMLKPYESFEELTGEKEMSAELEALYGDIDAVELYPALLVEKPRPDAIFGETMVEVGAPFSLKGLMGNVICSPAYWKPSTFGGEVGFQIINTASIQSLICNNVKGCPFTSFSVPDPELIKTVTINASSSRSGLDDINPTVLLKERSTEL
Description: Cellular COX-II Assay (Cell Fibroblast Assay), IL-1 stimulated human fetal dermal fibroblasts, PGE2. In kind it is cell-based. Particulars: IL-1 beta stimulated human fetal dermal fibroblasts. The protocol: The compounds of the invention are evaluated with respect to the inhibition of cellular COX-II in vitro according to the following Cellular COX-II Assay (Cell Fibroblast Assay).
Cellular COX-II Assay (Cell Fibroblast Assay)
Inhibition of cellular COX-II by test compounds is determined using stimulated human fetal dermal fibroblasts (HFDF, derived from primary cell cultures). Fibroblasts are cultured in microtiter wells at 1.5×10^4 cells/well in Dulbecco's Modified Eagle's Media (DMEM)(Gibco/BRL, Gaithersburg, Md. Sigma Chemical Co., St. Louis, Mo.) containing 4500 mg glucose/L, 100 units penicillin G/ml and 0.1 mg streptomycin/ml, 4 mM L-glutamine, 25 mM Hepes and 10% Fetal Bovine Serum (Gibco/BRL, Gaithersburg, Md. Bioproducts For Science, Inc., Indianapolis,Ind.). Following a 3-day incubation at 37° C., the culture media is removed by aspiration using low vacuum, and the cells are stimulated overnight with medium containing human recombinant IL-1 (interleukin-1) beta (1 ng/ml)(Cistron, Pine Brook, N.J.). The next day, the fibroblasts are washed with Phosphate Buffered Saline, and 185 μl of DMEM is added to each well. The cells are placed in a 37° C. incubator for 15 minutes. Compounds are then added to the cells using seven half-log dilutions in duplicate determinations. Cells are incubated with test compounds at 37° C. for 30 minutes. The COX-II substrate arachidonic acid (20 μM; Nu-Chek-Prep Inc., Elysian, Minn.) is then added to the cell cultures and the plates are incubated for 10 minutes at 37° C. Supernatants are collected and Prostaglandin E2 (PGE2) production is measured by an enzyme-linked immunosorbent assay (ELISA; antibodies produced by Cayman Chemical Company, Ann Arbor, Mich.). […] PG,60
The following is a description of how the activities of the compounds of the present invention may be determined.
A run of this assay consists of one (or more) plates, each containing, along with the standard (in row A), (1) two wells of unstimulated material (in col. 12), (2) five wells of stimulated material (in col. 12), (3) seven wells (one per concentration) for indomethacin (in col. 11), and (4) two wells at each of seven concentrations for five test compounds, one of which is a repeat of indomethacin. The response (ng/ml Eicosanoid) is estimated from the Standard curve and is highest at low concentrations and decreases as the concentration increases. If the response is plotted on the y-axis and the log of the concentration is plotted on the x-axis, the dose-response pattern for these assays is typically a symmetrical, sigmoidal shaped curve. If a full range of concentrations is used, the complete sigmoidal curve may be seen, starting with an upper asymptote, falling at some degree of steepness, and then leveling off at a lower asymptote. The IC50 is defined as the concentration corresponding to a response midway between the upper and lower plateaus. A theoretic "dose-response" model is used to estimate the IC50.
The procedure described below was used to define the minimum and maximum responses for the compounds on a plate.
The procedure uses information for indomethacin and the rest of the plate in defining the minimum and maximum response. The justification for doing this is as follows. Enough runs have been done with indomethacin to determine and use a range of concentrations such that the response to the lowest concentrations is on the upper plateau of the sigmoidal curve and the response to the highest concentrations is on the lower plateau of the sigmoidal curve. For the other compounds, if a response is measured which is less than the response for the unstimulated wells, then this response may be considered to be another estimate of a minimal response. Likewise, if a response is measured which is greater than the response for the stimulated wells, then this response may be considered to be another estimate of a maximal response. Based on this reasoning, the minimum is estimated as follows: […]

Test [2] has as its target T2, COX-II (Homo sapiens, UniProt P35354).
T2 construct: made in house; host or cells: SF9 insect cells, recombinant baculovirus (pVL1393); coding fragment from Cayman Chemical
T2 sequence (P35354 18-604): T1 sequence (P35354 18-604)
Description: Human Enzyme Assay, recombinant COX-II (PGE2 ELISA). Format: biochemical. The protocol:
(§1) The compounds of the invention are evaluated with respect to COX-I and COX-II activity in vitro using an enzyme based assay according to the following assay procedure.
(§2) (a) Preparation of Recombinant COX Baculoviruses
(§3) A 2.0 kb fragment containing the coding region for either human or murine COX-I (Caymen Chemical, Ann Arbor, Mich.), or human or murine COX-II (Caymen Chemical, Ann Arbor, Mich.), was cloned into a BamH1 site of the baculovirus transfer vector pVL1393 (Invitrogen, Palo Alto, Calif.) to generate a baculovirus transfer vector. Recombinant baculoviruses were isolated by transfecting 4 μg of baculovirus transfer vector DNA into SF9 cells (2×10e8) (Invitrogen, Palo Alto, Calif.) along with 200 ng of linearized bacium by the phosphate method. See M. D. Summers et al., "A Manual of Methods for Baculovirus Vectors and Insect Cell Culture Procedure," TEXAS AGRICULTURE EXPERIMENTAL STATION BULLETIN, No. 1555 (1987), which is incorporated herein by reference. Recombinant viruses were purified by three rounds of plaque purification, and high titer (10e7-10e8 pfu/ml) stocks of virus were prepared. For large scale production, SF9 insect cells (Invitrogen, Palo Alto, Calif.) were infected in 10 liter fermentors (0.5×10^6 /ml) with the recombinant baculovirus stock, such that the multiplicity of infection was 0.1. After 72 hours, the cells were centrifuged and the cell pellet was homogenized in Tris/Sucrose (50 mM: 25%, pH 8.0) containing 1% CHAPS. The homogenate was centrifuged at 10,000×G for 30 minutes, and the resultant supernatant was stored at -80° C. before being assayed for COX activity.
(§4) b. Assay for COX-I and COX-II activity:
(§5) COX activity was assayed as PGE2 formed/μg protein/time using an ELISA (Caymen Chemical, Ann Arbor, Mich.) to detect the prostaglandin E2 released. CHAPS-solubilized insect cell membranes containing the appropriate COX enzyme were incubated in a potassium phosphate buffer (50 mM, pH 8.0) containing phenol (0.5 mM), and heme (1 μM) with the addition of arachidonic acid (10 μM). Compounds of the present invention were pre-incubated with the enzyme for 10-20 minutes prior to the addition of the COX-I and COX-II enzyme substrate arachidonic acid (10 μM). Any reaction between the arachidonic acid and the enzyme was stopped after ten minutes at 37° C./room temperature by transferring 40 μl of reaction mix into […] ELISA buffer and 25 μM indomethacin. The PGE2 formed was measured by standard ELISA technology (Cayman Chemical, Ann Arbor, Mich.).
(§6) The results for this assay, as well as for the next assay (COX-II Cell Fibroblast Assay) are expressed in terms of COX-I or II activity as an IC50 value (50% inhibitory concentration), as defined as the amount of prostaglandin E2 (PGE2) formed per protein per time in response to the enzyme substrate arachidonic acid.

Test [3] deals with T3, COX-I (Homo sapiens, UniProt P23219).
T3 construct: made in house; host or cells: SF9 insect cells, recombinant baculovirus (pVL1393); coding fragment from Cayman Chemical
T3 sequence (P23219 24-599): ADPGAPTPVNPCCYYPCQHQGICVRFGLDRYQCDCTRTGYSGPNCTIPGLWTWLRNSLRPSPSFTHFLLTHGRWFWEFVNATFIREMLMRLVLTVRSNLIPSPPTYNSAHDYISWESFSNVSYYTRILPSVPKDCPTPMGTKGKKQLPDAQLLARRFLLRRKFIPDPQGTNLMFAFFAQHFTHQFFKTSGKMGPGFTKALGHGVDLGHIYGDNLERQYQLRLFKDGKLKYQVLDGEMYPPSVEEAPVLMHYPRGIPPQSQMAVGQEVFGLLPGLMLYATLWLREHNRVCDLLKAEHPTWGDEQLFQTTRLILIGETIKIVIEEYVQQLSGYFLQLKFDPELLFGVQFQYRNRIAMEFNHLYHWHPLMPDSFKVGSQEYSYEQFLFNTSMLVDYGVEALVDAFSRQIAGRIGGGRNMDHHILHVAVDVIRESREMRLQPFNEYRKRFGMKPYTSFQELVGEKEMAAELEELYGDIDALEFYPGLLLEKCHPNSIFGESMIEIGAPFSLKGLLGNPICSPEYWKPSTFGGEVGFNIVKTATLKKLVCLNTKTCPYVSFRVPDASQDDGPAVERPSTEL
Description: Human Enzyme Assay, recombinant COX-I (PGE2 ELISA). Format: biochemical. The protocol: as §1, §2, §3, §4, §5, §6

As for `CC(C)(C)c1ccc(S[C@H]2CCC[C@H]2OCC(=O)O)c(C(C)(C)C)c1` (racemic) [Example 80, (±)cis-2-[[2-[[2,4-bis(1,1-dimethylethyl)phenyl]thio]cyclopentyl]oxy]acetic acid], the IC50 stood at 602 nM in test [1], 937 nM in test [2] and 28500 nM in test [3].
As for `CC(C)(C)c1ccc(S[C@@H]2CCC[C@H]2OCC(=O)O)c(C(C)(C)C)c1` (racemic) [Example 81, (±)trans-2-[[2-[[2,4-bis(1,1-dimethylethyl)phenyl]-thio]cyclopentyl]oxy]acetic acid], the figures for the half-inhibitory concentration (IC50) in test [1], in test [2] and in test [3] were 438 nM, 1430 nM and 94600 nM, respectively.
For `CC(C)(C)c1cc(S[C@@H]2CCC[C@H]2OCC(=O)O)cc(C(C)(C)C)c1` (relative stereo) [Example 76, (±)trans-2-[[2-[[3,5-bis(1,1-dimethylethyl)phenyl]thio]cyclopentyl]oxy]acetic acid], in that order: 5590 nM, above 100000 nM and above 100000 nM.
For `CC(C)(C)c1cc(S[C@H]2CCC[C@H]2OCC(=O)O)cc(C(C)(C)C)c1` (relative stereo) [Example 77], in that order: 170 nM, 5160 nM and above 100000 nM.
In the same order, the values of `CC(C)(C)c1ccc(O[C@@H]2CCC[C@H]2OCC(=O)O)c(C(C)(C)C)c1` (relative stereo) [Example 101, trans-2-[[2-[2,4-bis(1,1-dimethylethyl)phenoxy]cyclopentyl]oxy]acetic acid] are 840 nM, above 100000 nM and above 100000 nM.
Consider `CC(C)(C)c1cc(S[C@H]2CCC[C@H]2OCC(=O)O)cc(C(C)(C)C)c1` (single isomer, unassigned) [Example 84, (+)cis-2-[[2-[[3,5-bis(1,1-dimethylethyl)phenyl]thio]cyclopentyl]oxy]aceticacid], for which the IC50 in test [1] was 420 nM; in test [2] it was 3700 nM; in test [3], above 100000 nM.
On to `CC(C)(C)c1cc(S[C@H]2CCC[C@H]2OCC(=O)O)cc(C(C)(C)C)c1` (single isomer, unassigned) [Example 85, (-)cis-2-[[2-[[3,5-bis(1,1-dimethylethyl)phenyl]thio]cyclopentyl]oxy]aceticacid], for which the IC50 was found to be 163 nM in test [1] and 2500 nM in test [2].
`CC(C)(C)c1cc(S[C@@H]2CCCC[C@H]2OCC(=O)O)cc(C(C)(C)C)c1` (single isomer, unassigned) [Example 89, (-)trans-2-[[2-[[3,5-bis(1,1-dimethylethyl)phenyl]thio]cyclohexyl]oxy]acetic acid]: the IC50 in test [1] was 576 nM; in test [2] it was 3400 nM; in test [3], above 100000 nM.
In the case of `CC(C)(C)c1ccc(S[C@@H]2CCC[C@H]2OCC(=O)O)c(C(C)(C)C)c1` (single isomer, unassigned) [Example 92, (+)trans-2-[[2-[[2,4-bis(1,1-dimethylethyl)phenyl]thio]cyclopentyl]oxy]acetic acid], the IC50 in test [1] was 246 nM; in test [2], 3880 nM; in test [3] it was above 100000 nM.
In the same order, the values of `CC(C)(C)c1ccc(S[C@@H]2CCC[C@H]2OCC(=O)O)c(C(C)(C)C)c1` (single isomer, unassigned) [Example 93, (-)trans-2-[[2-[[2,4-bis(1,1-dimethylethyl)phenyl]thio]cyclopentyl]oxy]acetic acid] are 334 nM, 7660 nM and above 100000 nM.
With `CC(C)(C)c1ccc(S[C@H]2CCC[C@H]2OCC(=O)O)c(C(C)(C)C)c1` (single isomer, unassigned) [Example 97, (-)cis-2-[[2-[[2,4-bis(1,1-dimethylethyl)phenyl]thio]cyclopentyl]oxy]aceticacid], the results for the IC50 in test [1], in test [2] and in test [3] were 227 nM, 2000 nM and 92100 nM, respectively.
